Assay results taken from US7579338B2, “Methods and compositions for treating atheroma, tumors and other neoplastic tissues” (Pharmacyclics, Inc., priority 1999, dated 2009).

Tests used:
[1] = system: MES-SA human uterine cells; assay: Proliferation of MES-SA cells with BSO and GdTex (MTT); format: cell-based
Protocol: The proliferation of MES-SA human uterine cells grown in McCoys 5A medium in the presence of a thiol depleting agent (BSO) or GdTex was used to assess the combined effect of these agents. The protocol outlined in the previous example was followed, with the following changes:
1. The serially diluted compound was 200 μM BSO (Sigma Chemical, St. Louis, Mo., catalogue no. G1404).
2. The cells were allowed to incubate in the presence of the two drugs for ca. 72 hours, prior to exchange of media and analysis using the colorimetric (MTT) assay, as described, e.g., in Example 5.

[2] = system: MES-SA cells; assay: Radiation sensitization by clonogenic assay; format: cell-based, human
Protocol: The response of MES-SA cells to ionizing radiation was studied using a clonogenic assay format to confirm radiation sensitization potential.
Materials and Methods. MES-SA cells (200 to 5,000 cells per dish) were plated in T-25 flasks in 8.5 mL McCoys 5A containing 10% FBS (Gibco-BRL) and ca. 2% penicillin/streptomycin solution (Sigma) and incubated at 37° C. overnight. Stock BSO, ascorbate, GdTex (or a control 5% mannitol) solutions were prepared and 0.5 mL of each added to each flask to give a final volume of 10 mL (final concentrations of BSO, ascorbate and GdTex were 100 μM, 5 μM and 50 μM, respectively) and the cells incubated for 24 hr, whereupon the flasks were irradiated using a 137Cs irradiator (Model 40 Gammacell, J. L. Shepherd & Assoc., San Fernando, Calif.) at a dose rate of 0.805 Gy/min. Medium was removed immediately after irradiation, the cells were washed with fresh medium (5.0 mL) followed by the addition of fresh medium (10 mL) and incubation for an additional 11 days. Colonies were fixed and stained with 1% crystal violet and then counted.

[3] = Production of H2O2 in the presence of NADPH (Bioxytech H2O2-560 colorimetric); format: biochemical; conditions: NADPH plus 0.05 molar equivalent texaphyrin, no catalase, over the course of 100 minutes
Protocol: • Stock NADPH (Sigma N 7505) (prepared fresh): 10.14 mg/(10 mL×833.4 mg/mmol)=1.217 mM • Stock LuTex: 5.02 mg/(10.0 mL water×1166 mg/mmol)=[…] • Stock 4× Buffer: 200 mM HEPES, pH 7.5; 400 mM NaCl These were combined to form the reaction mixture: 200 μL 4× Buffer, 200 μL NADPH Stock, 371.8 μL Water, 28.2 μL LuTex Stock. This was analyzed as indicated below. As a control, a solution in which the LuTex complex was not added was prepared as above, with suitable adjustment of the volume of water, and analyzed concurrently. In similar manner, a solution was prepared as above except that 2 μL catalase (Boeringer-Mannheim 106 836, now Roche Molecular Biochemicals, Indianapolis, Ind.) was added, and analyzed concurrently.
A reaction mixture was prepared containing NADPH, buffer, and water. Texaphyrin catalyst, eg., 0.05 molar equivalent, was added to this reaction mixture, vortexed briefly, and incubated at ambient temperature in the dark. […] The absorbance at 240 nm was used to standardize this solution, which was further diluted and used to construct a standard H2O2 curve at 560 nm in conjunction with the H2O2 calorimetric reagent. […]
Measurements of the absorbance at 560 nm (with appropriate subtraction of the background absorbance of the reagent at this wavelength) were made of samples taken at the various time points.

Compound	inhibitory effect of GdTex alone ([1]; absence of BSO, ca. 72 hours, McCoys 5A medium)	combined effect of GdTex and BSO on cell growth ([1]; increasing amounts of GdTex with BSO, data normalized for GdTex alone)	radiation response, co-administration ([2]; 50 μM GdTex and 100 μM BSO co-administered, 24 h prior to irradiation)	effect on clonogenic survival as a function of radiation, single agent ([2]; 50 μM GdTex or 100 μM BSO for 24 h prior to irradiation, ascorbate-containing medium)	H2O2 produced [3]
CC(=O)[O-].CC(=O)[O-].CCc1c(CC)c2cc3nc(cnc4cc(OCCOCCOCCOC)c(OCCOCCOCCOC)cc4ncc4nc(cc1[n-]2)C(CCCO)=C4C)C(C)=C3CCCO.O.[Gd+3] [GdTex, motexafin gadolinium]	ca. 50%	increase in the cytotoxic dose response of the cells towards BSO	radiation response significantly greater than the sum of the responses obtained from them individually	relatively small effect on clonogenic survival	–
CC(=O)[O-].CC(=O)[O-].CCc1c(CC)c2cc3nc(cnc4cc(OCCOCCOCCOC)c(OCCOCCOCCOC)cc4ncc4nc(cc1[n-]2)C(CCCO)=C4C)C(C)=C3CCCO.O.[Lu+3] [LuTex, motexafin lutetium]	–	–	–	–	Approximately 40 μM
